# Results from patent US20080206253A1, “Method For Preventing or Treating Pain in a Mammal” (priority 2005, published 2008).
# Entries after “also recorded” stand apart in the source; their conditions may differ.
# Tested on: rats, IT SP (spinal NK-1 receptors)
# Assay: IT substance P-evoked thermal hyperalgesia (paw withdrawal latency, Hargreaves device)
# Assay type: in vivo, rat
# Conditions: for IT SP-induced thermal hyperalgesia (paw withdrawal latency): IT p38α AS 30 μg or p38β AS 20 μg daily for five days, IT SP 30 nmol, compared with MS group; for Base line thermal thresholds: before IT SP, after five days of IT treatment
# Protocol: Yaksh et al., Nature 286: 155-157, 1980; Yaksh, Trends Pharmacol Sci 20: 329-337, 1999. […] Malmberg and Yaksh, Science 257: 1276-1279, 1992; Svensson et al., J Neurochem 86: 1534-1544, 2003. […] To investigate the contribution of p38α and p38β to SP-evoked hyperalgesia and p38 phosphorylation, spinal delivery of p38α and p38β AS and MS was carried out. Thermal withdrawal latencies was assessed after IT injection of SP and lumbar spinal cords collected immediately to compare the degree of spinal p38 phosphorylation at the hypothesized time of peak phosphorylation. IT injection of SP into the MS group produced an expected reduction of thermal withdrawal latency in comparison with IT saline injection into to vehicle treated animals (FIG. 7C). […] In contrast, IT SP-induced thermal hyperalgesia was attenuated in rats which had received p38β AS (FIG. 7E). […] Stripping and reprobing the western blot membranes confirmed that p38α protein expression was knocked down in p38α AS treated group (FIG. 7D) as well as p38β in the p38β AS group (FIG. 7F).
# Nociceptive models. To directly induce spinal sensitization, rats received intrathecal injections of sP (30 nmol) which activates spinal NK-1 receptors and produces thermal hyperalgesia. Hua et al., Neuroscience 89: 525-534, 1999a; Piercey et al., Science 214: 1361-1363, 1981; Yashpal and Henry, Can J Physiol Pharmacol 61: 303-307, 1983. Thermally evoked paw withdrawal responses were assessed using a Hargreaves type testing device. Dirig et al., J Neurosci Methods 76: 183-191, 1997. Briefly, rats were placed on a glass surface maintained at 30° C. The thermal nociceptive stimulus originates from a projection bulb below the glass surface, and the stimulus is delivered separately to one hind paw at a time. The animals were allowed to acclimatize on the glass surface and basal paw withdrawal latencies (PWL) were then assessed for left and right paws at time (T)=−40, =30 and −20 min and expressed as the mean of the six measurements. At T=−10 min the animals received intrathecal vehicle or drug and at T=0, sP was injected. Withdrawal latencies were then assessed at T=15, 30, 45 and 60 min. Paw withdrawal latency for each group was expressed as the mean at each time point.
Substance,IT SP-induced thermal hyperalgesia (paw withdrawal latency),Base line thermal thresholds
"p38α AS: 20-nucleotide 2′-MOE phosphorothioate chimeric antisense AGGTGCTCAGGACTCCATTT, beginning at position 1081 in the rat p38α mRNA (all phosphorothioate, sugars by position and methylation of C not given here; 2'-MOE chimeric (gapmer) antisense)",not affected,11.49 ± 0.3 s
"p38β AS: 20-nucleotide 2′-MOE phosphorothioate chimeric antisense GTATGTCCTCCTCGCGTGGA, beginning at position 439 in the rat p38β mRNA (all phosphorothioate, sugars by position and methylation of C not given here; 2'-MOE chimeric (gapmer) antisense)",attenuated; also recorded: blocked IT SP-evoked thermal hyperalgesia,10.8 ± 0.5 s
